Values quoted from earlier work as cited in patent US11633350B2, “Hypotonic microbicidal formulations and methods of use” (priority 2014, dated 2023).

What was measured:
HIV = details: PK/PD models

Row | SMILES | systemic (blood) TFV peak (Cmax) concentration (after a single oral TDF dose) | time to protection (in vivo) | time to achieve protective concentrations of TFV-DP in tissue (in vivo, po) | plasma concentration associated with 90% protection (EC90) (HIV)
1 | CC(C)OC(=O)OCOP(=O)(CO[C@H](C)Cn1cnc2c(N)ncnc21)OCOC(=O)OC(C)C.O=C(O)/C=C/C(=O)O [TDF, 2,4,6,8-Tetraoxa-5-phosphanonanedioic acid, 5-[[(1R)-2-(6-amino-9H-purin-9-yl)-1-methylethoxy]methyl]-, bis(1-methylethyl) ester, 5-oxide, (2E)-2-butenedioate (1:1)] | 350 ng/mL | 3 days | one week | 
2 | C[C@H](Cn1cnc2c(N)ncnc21)OCP(=O)(O)O [tenofovir, (R)-9-(2-phosphonylmethoxypropyl)adenine] |  |  |  | 0.107 µg/mL
